What was measured:
[1] = biological target: T1, RNA-directed RNA polymerase (Influenza A virus (strain A/Puerto Rico/8/1934 H1N1), UniProt P03428+P03431+P03433); assay: Inhibition of Influenza A virus RdRp transfected in HEK293T cells co-expressing PA/PB1/PB2/NP/firefly luciferase/Renilla luciferase preincubated for 4 hrs followed by medium replacement with compound measured after 20 hrs by minireplicon assay; assay type: cell-based
[2] = biological target: T1, RNA-directed RNA polymerase; assay: Inhibition of Influenza A virus RdRp transfected in HEK293T cells co-expressing PA/PB1/PB2/NP/firefly luciferase/Renilla luciferase assessed as impaired nuclear import preincubated for 4 hrs followed by medium replacement with compound measured after 20 hrs by minireplicon assay; assay type: cell-based
Influenza A virus [3] = assay: Antiviral activity against Oseltamivir-resistant Influenza A virus Parma/24/09 (H1N1) infected in MDCK cells incubated for 48 hrs by plaque reduction assay; assay type: functional, organism-based
Influenza A virus [4] = assay: Antiviral activity against Influenza A virus PR/8/34 infected in human A549 cells assessed as reduction in viral progeny preincubated for 1 hr followed by media replacement with compound measured after 23 hrs by virus yeild reduction assay; assay type: functional, organism-based; conditions: for EC50: PR/8/34, A549; for Activity: time 24.0 hrs
Influenza A virus [5] = assay: Antiviral activity against Amantadine-resistant Influenza A virus California/07/2009 (H1N1) clinical isolate infected in MDCK cells expressing ST6Gal by crystal violet staining based plaque reduction assay; assay type: functional, organism-based
Influenza A virus [6] = assay: Antiviral activity against Amantadine/Oseltamivir-resistant Influenza A virus Denmark/528/2009 (H1N1) clinical isolate infected in MDCK cells expressing ST6Gal by crystal violet staining based plaque reduction assay; assay type: functional, organism-based
Influenza A virus [7] = assay: Antiviral activity against Amantadine-resistant/Oseltamivir-sensitive Influenza A virus WSN/1933 (H1N1) infected in MDCK cells by plaque reduction assay; assay type: functional, organism-based
Influenza A virus [8] = assay: Antiviral activity against Amantadine-resistant/Oseltamivir-sensitive Influenza A virus California/07/2009 (H1N1) infected in MDCK cells by plaque reduction assay; assay type: functional, organism-based
Influenza A virus [9] = assay: Antiviral activity against Amantadine-resistant/Oseltamivir-sensitive Influenza A virus Switzerland/9715293/2013 (H3N2) infected in MDCK cells by plaque reduction assay; assay type: functional, organism-based
Influenza A virus [10] = assay: Antiviral activity against Amantadine/Oseltamivir-resistant Influenza A virus North Carolina/39/2009 (H1N1) infected in MDCK cells by plaque reduction assay; assay type: functional, organism-based
Influenza A virus [11] = assay: Antiviral activity against Amantadine/Oseltamivir-resistant Influenza A virus Washington/29/2009 (H1N1) infected in MDCK cells by plaque reduction assay; assay type: functional, organism-based
Influenza A virus [12] = assay: Antiviral activity against Amantadine/Oseltamivir-resistant Influenza A virus Texas/04/2009 (H1N1) infected in MDCK cells by plaque reduction assay; assay type: functional, organism-based
Influenza A virus [13] = assay: Antiviral activity against Amantadine/Oseltamivir-resistant Influenza A virus Denmark/528/2009 (H1N1) infected in MDCK cells by plaque reduction assay; assay type: functional, organism-based
Influenza B virus = assay: Antiviral activity against Amantadine-resistant/Oseltamivir-sensitive Influenza B virus Wisconsin/01/2010 infected in MDCK cells by plaque reduction assay; assay type: functional, organism-based; conditions: Wisconsin/01/2010, MDCK

Question: For `O=C(Nc1sc2c(c1C(=O)Nc1ccccn1)CCCCC2)c1ccc([N+](=O)[O-])cc1`, which IC50 [1] is on record?
Answer: 270 nM

Question: With `O=C(Nc1sc2c(c1C(=O)Nc1nccs1)CCCCC2)c1ccccc1O` as the molecule, how does the IC50 [1] read?
Answer: 330 nM

Question: Which EC50 [2] does the source give for `NC(=O)c1ncn([C@@H]2O[C@H](CO)[C@@H](O)[C@H]2O)n1` [RIBAVIRIN] here?
Answer: 21700 nM

Question: And the EC50 (Influenza A virus [3])?
Answer: 22000 nM

Question: Which results are given for `O=C(Nc1sc2c(c1C(=O)Nc1ccccc1O)CCCCC2)c1ccc([N+](=O)[O-])cc1O`?
Answer: EC50 [2]: 130 nM; EC50 (Influenza A virus [3]): 81 nM; EC50 (Influenza A virus [4]): 87 nM; Activity (Influenza A virus [4]): Dose-Dependent Effect

Question: What does the source list for `C[C@@H](c1ccccc1)n1nnnc1[C@H](c1ccsc1)N1CCC(n2c(=O)[nH]c3ccccc32)CC1`?
Answer: EC50 (Influenza A virus [5]): 600 nM; EC50 (Influenza A virus [6]): 600 nM

Question: `O=C(Nc1sc2c(c1C(=O)Nc1ccc(F)cc1)CCCCC2)c1ccccc1O` was tested. Which IC50 [1] did it give?
Answer: 470 nM

Question: With `O=C1C(c2ncc([N+](=O)[O-])s2)CC[C@@H]2CCCC[C@@H]12` (some centres not stated) as the molecule, how does the EC50 (Influenza A virus [7]) read?
Answer: 930 nM

Question: What about the EC50 (Influenza A virus [8]) of the same molecule?
Answer: 930 nM

Question: What about the EC50 (Influenza A virus [9]) of the same molecule?
Answer: 930 nM

Question: And the EC50 (Influenza A virus [10])?
Answer: 930 nM

Question: And the EC50 (Influenza A virus [11])?
Answer: 930 nM

Question: What about the EC50 (Influenza A virus [12]) of the same molecule?
Answer: 930 nM

Question: What about the EC50 (Influenza A virus [13]) of the same molecule?
Answer: 930 nM

Question: And the EC50 (Influenza B virus)?
Answer: 930 nM

Question: For `O=C(Nc1sc2c(c1C(=O)Nc1ccccn1)CCCCC2)c1ccccc1O`, which IC50 [1] is on record?
Answer: 2800 nM

Question: Which IC50 [1] does the source give for `O=C(Nc1sc2c(c1C(=O)Nc1ccc(Cl)cc1)CCCCC2)c1ccccc1O` here?
Answer: 1000 nM

Question: Which EC50 [2] does the source give for `N#Cc1ccc(C(=O)Nc2sc3c(c2C(=O)Nc2ccccc2O)CCCCC3)cc1` here?
Answer: 32 nM

Question: And the EC50 (Influenza A virus [3])?
Answer: 280 nM

Question: And the EC50 (Influenza A virus [4])?
Answer: 140 nM

Question: And the Activity (Influenza A virus [4])?
Answer: Dose-Dependent Effect

Question: For `NC(=O)c1nc(F)cnc1O`, which EC50 (Influenza A virus [4]) is on record?
Answer: 7930 nM

Question: How did the EC50 [2] turn out when `N#Cc1ccc(C(=O)Nc2sc3c(c2C(=O)Nc2ccc(C(F)(F)F)cc2)CCCCC3)cc1` was run?
Answer: > 10000 nM

Source: ChEMBL document CHEMBL5614404, “Optimization of potent, broad-spectrum, and specific anti-influenza compounds targeting RNA polymerase PA-PB1 heterodimerization” (Eur J Med Chem, 2024)
